# Results reported in US10233222B2, “Methods, compositions, diagnostics and assays for the treatment of Alzheimer's disease” (priority 2014, dated 2019).
# Biological target: T1, Aβ42-SYP interaction (Homo sapiens, UniProt P08247)
# T1 construct: His6; made in house; host or cells: insect cells (SYP)
# Test: SPR binding of Aβ42 to SYP in the presence of cholesterol hemisuccinate
# Conditions: increasing concentrations of cholesterol hemisuccinate
# Experimental: Surface Plasmon Resonance: Binding studies were performed on a Biacore 3000 or a BiOptix 404 pi, with similar results. For the Biacore, a CMS chip was used and for the BiOptix instrument, a CMV150 chip was employed. […] Recombinant human SYP, containing a His(6)-tag expressed in insect cells, was a gift of J. Mapes and A. DeFazio at CU Boulder. Bovine serum albumin (Sigma, St. Louis, Mo.), Interleukin 1 receptor antagonist (gift of Synergen, Inc., Boulder, Colo.), and SLC35F1 (gift of G. Chang, UCSD) were used as control proteins. Binding at a flow rate of 20 μl/min was in 0.15M sodium chloride, 0.03M sodium HEPES, pH 7.4, 0.009% Fos-choline 14 (Anatrace, Santa Clara, Calif.) for all samples.
# We therefore asked if cholesterol inhibits the Aβ42-SYP interaction.
# T1 sequence (P08247 whole entry): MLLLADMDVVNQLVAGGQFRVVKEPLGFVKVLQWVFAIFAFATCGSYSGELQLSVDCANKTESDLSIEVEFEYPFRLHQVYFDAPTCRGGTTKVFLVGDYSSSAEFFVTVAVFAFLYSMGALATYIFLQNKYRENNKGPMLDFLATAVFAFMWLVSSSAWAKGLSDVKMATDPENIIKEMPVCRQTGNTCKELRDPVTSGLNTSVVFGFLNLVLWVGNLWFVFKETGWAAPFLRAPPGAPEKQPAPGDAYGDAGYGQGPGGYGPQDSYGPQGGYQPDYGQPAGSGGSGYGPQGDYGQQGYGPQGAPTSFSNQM
substance,measurement,value
cholesterol hemisuccinate,inhibition of binding of Aβ42 to SYP,robust concentration dependent inhibition of binding
